Test results published in ChEMBL document CHEMBL5528065, “Structure-Activity Relationship of a Pyrrole Based Series of PfPKG Inhibitors as Anti-Malarials” (J Med Chem, 2024).

What was measured:
[1] = Inhibition of recombinant Plasmodium falciparum PKG using FAM-PKA peptide as fluorescent substrate preincubated for 15 mins followed by substrate addition measured after 1 hr by fluorescence polarization based IMAP assay
Plasmodium berghei = experiment: Antimalarial activity against Plasmodium berghei sporozoites expressing Luciferase infected in human HepG2 cells assessed as reduction in parasite growth incubated for 48 hrs by ONE-Glo luciferase assay; type: functional, organism-based
Plasmodium falciparum [2] = experiment: Antimalarial activity against drug-sensitive Plasmodium falciparum 3D7 infected in human erythrocytes assessed as reduction in parasitemia incubated for 72 hrs by SYBR green I and Mitotracker deep red dye based flow cytometric analysis; type: functional, organism-based
Homo sapiens = species: Homo sapiens; experiment: Inhibition of human PKG using FAM-IP3R peptide as fluorescent substrate at 10 uM preincubated for 15 mins followed by substrate addition measured after 1 hr by fluorescence polarization based IMAP assay relative to control; conditions: time 75.0 min
Plasmodium falciparum [3] = experiment: Antimalarial activity against Plasmodium falciparum expressing PKG T618Q mutant infected in human erythrocytes assessed as reduction in parasitemia incubated for 72 hrs by SYBR green I and Mitotracker deep red dye based flow cytometric analysis; type: functional, organism-based; conditions: Plasmodium falciparum, 72 h
[4] = Plasmodium berghei, HepG2, 48 h
[5] = Plasmodium falciparum, 3D7, 72 h

| SMILES | IC50 [1] [nM] | pIC50 [1] | EC50 (Plasmodium berghei; [4]) [nM] | EC50 (Plasmodium falciparum [2]; [5]) [nM] | inhibition (Homo sapiens) [%] | EC50 (Plasmodium falciparum [3]) [nM] | EC50 (Plasmodium berghei) [nM] | EC50 (Plasmodium falciparum [2]) [nM] |
| --- | --- | --- | --- | --- | --- | --- | --- | --- |
| CN1CCC(c2cc(-c3ccncc3Br)c(-c3ccc(F)cc3)[nH]2)CC1.Cl.Cl | 35 | 7.46 | 340 | 330 | 13 | 1670 | – | – |
| C[C@H]1C[C@H](c2cc(-c3ccncc3)c(-c3ccc(F)cc3)[nH]2)CCN1C.Cl.Cl (racemic) | 51 | 7.1 | 560 | 380 | 7 | 950 | – | – |
| CC(=O)O.CC(O)c1c(C2CCN(C)CC2)[nH]c(-c2ccc(F)cc2)c1-c1ccncc1 (stereo not given) | 1430 | 5.84 | – | 4260 | 15 | 3750 | – | – |
| CC(O)c1cc(-c2cc(C3CCN(C)CC3)[nH]c2-c2ccc(F)cc2)ccn1.Cl.Cl (stereo not given) | 10500 | 4.98 | > 10000 | 3350 | 0.5 | 8320 | – | – |
| CN1CCC(c2cc(-c3ccncc3)c(-c3ccsc3)[nH]2)CC1.Cl.Cl | 176 | 6.89 | 2400 | 1020 | 7 | 1740 | – | – |
| C[C@@H]1C[C@H](c2cc(-c3ccncc3)c(-c3ccc(F)cc3)[nH]2)CCN1C.Cl.Cl (racemic) | 41 | 6.97 | 670 | 360 | 10 | 900 | – | – |
| CC(=O)O.CN1CCC(c2[nH]c(-c3ccc(F)cc3)c(-c3ccncc3)c2CO)CC1 | 226 | 6.65 | – | 4610 | 11 | 4190 | – | – |
| CN1C2CCC1CC(c1cc(-c3ccncc3)c(-c3ccc(F)cc3)[nH]1)C2.Cl.Cl (stereo not given) | 132 | 7.09 | 490 | 350 | -9 | 670 | – | – |
| CN1C[C@@H]2C(c3cc(-c4ccncc4)c(-c4ccc(F)cc4)[nH]3)[C@@H]2C1.Cl.Cl (stereo not given in full) | 207 | 6.59 | 670 | 640 | 6 | 900 | – | – |
| CN1CCC(c2cc(-c3ccncc3Cl)c(-c3ccc(F)cc3)[nH]2)CC1.Cl.Cl | 152 | 7.47 | 1440 | 460 | 12 | 3950 | – | – |
| CCc1c(C2CCN(C)CC2)[nH]c(-c2ccc(F)cc2)c1-c1ccncc1.Cl.Cl | 1610 | 5.79 | – | – | 12 | – | – | – |
| C[C@@H]1CN(C)CC[C@H]1c1cc(-c2ccncc2)c(-c2ccc(F)cc2)[nH]1.Cl.Cl (racemic) | 27 | 7.64 | – | 30 | 9 | 800 | 280 | – |
| CN1CCC(c2cc(-c3ccncc3F)c(-c3ccc(F)cc3)[nH]2)CC1.Cl.Cl | 49 | 7.72 | 780 | 300 | 18 | 5220 | – | – |
| CN1CCC(c2cc(-c3ccnc(C(N)=O)c3)c(-c3ccc(F)cc3)[nH]2)CC1.Cl.Cl | 1810 | 5.74 | – | 3920 | 14 | > 10000 | – | – |
| C[C@H]1CN(C)CC[C@H]1c1cc(-c2ccncc2)c(-c2ccc(F)cc2)[nH]1.Cl.Cl (racemic) | 10 | 7.89 | 190 | – | 35 | 660 | – | 30 |
| C=Cc1c(C2CCN(C)CC2)[nH]c(-c2ccc(F)cc2)c1-c1ccncc1.CC(=O)O | 246 | 6.61 | 410 | 1080 | -1 | 1170 | – | – |
| COc1ccc(-c2[nH]c(C3CCN(C)CC3)cc2-c2ccncc2)cc1.Cl.Cl | 30 | 7.2 | 240 | 230 | 6 | 1090 | – | – |
| CCOC(=O)c1c(C2CCN(C)CC2)[nH]c(-c2ccc(F)cc2)c1-c1ccncc1.Cl.Cl | 1030 | 5.99 | 2600 | 2470 | 0 | 1630 | – | – |

| SMILES | IC50 [1] [nM] | pIC50 [1] | EC50 (Plasmodium berghei; [4]) [nM] | EC50 (Plasmodium falciparum [2]; [5]) [nM] | inhibition (Homo sapiens) [%] | EC50 (Plasmodium falciparum [3]) [nM] | EC50 (Plasmodium berghei) [nM] | EC50 (Plasmodium falciparum [2]) [nM] |
| --- | --- | --- | --- | --- | --- | --- | --- | --- |
| CN1CCC(C)(c2cc(-c3ccncc3)c(-c3ccc(F)cc3)[nH]2)CC1.Cl.Cl | 50 | 7.09 | 500 | 550 | 35 | 1070 | – | – |
| Cc1cnccc1-c1cc(C2CCN(C)CC2)[nH]c1-c1ccc(F)cc1.Cl.Cl | 208 | 6.68 | 590 | 1360 | 12 | 1130 | – | – |
| CN1CCC(c2cc(-c3ccn4nnnc4c3)c(-c3ccc(F)cc3)[nH]2)CC1.Cl.Cl | 11600 | 4.94 | > 20000 | 2750 | 12 | 2270 | – | – |
| CN1CCC(c2[nH]c(-c3ccc(F)cc3)c(-c3ccncc3)c2Br)CC1.Cl.Cl | 107 | 6.97 | – | 1550 | 12 | 1140 | – | – |
| CN1CCC(c2cc(-c3ccnc(Br)c3)c(-c3ccc(F)cc3)[nH]2)CC1.Cl.Cl | 169 | 6.77 | – | 1720 | 36 | 1930 | – | – |
| CC(=O)O.CN1CCC(c2cc(-c3ccnc(C#N)c3)c(-c3ccc(F)cc3)[nH]2)CC1 | 95 | 7.02 | 2800 | 420 | 9 | 3730 | – | – |
| CN1CCC(c2[nH]c(-c3ccc(F)cc3)c(-c3ccncc3)c2C(N)=O)CC1.Cl.Cl | 4840 | 5.31 | – | > 20000 | 14 | – | – | – |
| CN1CCC(c2cc(-c3ccnc(N)c3)c(-c3ccc(F)cc3)[nH]2)CC1.Cl.Cl | 352 | 6.45 | 590 | 50 | -4 | 600 | – | – |
| CN1CCC(c2cc(-c3ccncc3CO)c(-c3ccc(F)cc3)[nH]2)CC1.Cl.Cl | 1520 | 5.82 | 2400 | 481 | 1 | 6230 | – | – |
| CN1CCC(c2cc(-c3ccncc3)c(-c3ccc(F)cc3)n2C)CC1.Cl.Cl | 112 | 6.95 | 2300 | 710 | 4 | 690 | – | – |
| CN1CCC(c2cc(-c3ccncc3)c(-c3ccc(F)cc3)[nH]2)CC1.Cl | 31 | 7.61 | 270 | 230 | 6 | 1020 | – | – |
| CN1CCC(c2cc(-c3ccncc3)c(-c3ccc(C(F)(F)F)cc3)[nH]2)CC1.Cl.Cl | 329 | 6.94 | 2600 | 530 | -2 | 800 | – | – |
| CN(C)Cc1c(C2CCN(C)CC2)[nH]c(-c2ccc(F)cc2)c1-c1ccncc1.Cl.Cl.Cl | 3760 | 5.43 | – | – | 8 | – | – | – |
| CN1CCC(c2cc(-c3ccncc3C#N)c(-c3ccc(F)cc3)[nH]2)CC1.Cl.Cl | 35 | 7.46 | 340 | 360 | 2 | 4400 | – | – |
| CN1CCC(c2cc(-c3ccncc3C(N)=O)c(-c3ccc(F)cc3)[nH]2)CC1.Cl.Cl | 4910 | 5.31 | – | > 20000 | 15 | – | – | – |
| Cc1cc(-c2cc(C3CCN(C)CC3)[nH]c2-c2ccc(F)cc2)ccn1.Cl.Cl | 2550 | 5.59 | 3700 | 2330 | 9 | 960 | – | – |
| CN1CCC(c2[nH]c(-c3ccc(F)cc3)c(-c3ccncc3)c2C#N)CC1.Cl.Cl | 11 | 7.96 | 540 | 900 | 19 | 2450 | – | – |
